Data on 13 compounds can be found in ChEMBL document CHEMBL4831557, “Parthenolide Derivatives as PKM2 Activators Showing Potential in Colorectal Cancer” (J Med Chem, 2021).

The structures appear in SMILES notation. Calls of active or inactive are those of the source. The rule behind the calls is not given here.

In data set [1] the test system is HepG2. Nature of the data set: Cytotoxicity against human HepG2 cells assessed as reduction in cell viability incubated for 48 hrs by MTT assay. It counts as functional, cell-based. The settings on record: HepG2, 48 h. (In general: Tetrazolium dyes change colour on reduction, which living cells bring about.)
The test system of data set [2] is U2OS. Nature of the data set: Cytotoxicity against human U2OS cells assessed as reduction in cell viability incubated for 48 hrs by MTT assay. Format: functional, cell-based.
The subject of data set [3] is MDA-MB-231. Nature of the data set: Cytotoxicity against human MDA-MB-231 cells assessed as reduction in cell viability incubated for 48 hrs by MTT assay. It counts as functional, cell-based. The settings on record: MDA-MB-231, 48 h.
Data set [4] deals with Pyruvate kinase PKM (Homo sapiens, UniProt P14618). Kind of data set: Activation of recombinant human PKM2 at 10 uM incubated 30 mins by fluorescence microplate reader analysis. The settings on record: filed as activator.
In data set [5] the test system is SW480. Nature of the data set: Cytotoxicity against human SW480 cells assessed as reduction in cell viability incubated for 48 hrs by MTT assay. It counts as functional, cell-based. The settings on record: SW480, 48 h.
Data set [6] has as its system A549. Kind of data set: cells. The following applies: Homo sapiens, A549, 48 h.
Data set [7] concerns HT-29. Kind of data set: Cytotoxicity against human HT-29 cells assessed as reduction in cell viability incubated for 48 hrs by MTT assay. Format: functional, cell-based. The settings on record: HT-29, 48 h.
The subject of data set [8] is HCT-116. Nature of the data set: Cytotoxicity against human HCT-116 cells assessed as reduction in cell viability incubated for 48 hrs by MTT assay. Format: functional, cell-based. The following applies: HCT-116, 48 h.
A short description of data set [9]: Selectivity index, ratio of IC50 for human NCM460 cells to IC50 for human HT-29 cells. The settings on record: NCM460 cells versus HT-29 cells, read-out: Ratio IC50. Format: toxicity.
Data set [10] is described as follows: Selectivity index, ratio of IC50 for human NCM460 cells to IC50 for human SW480 cells.
Data set [11] concerns NCM460. Nature of the data set: Cytotoxicity against human NCM460 cells assessed as reduction in cell viability incubated for 48 hrs by MTT assay. The settings on record: NCM460, 48 h. Format: cell-based.

Sequence of Pyruvate kinase PKM (P14618 2-531 limits assumed): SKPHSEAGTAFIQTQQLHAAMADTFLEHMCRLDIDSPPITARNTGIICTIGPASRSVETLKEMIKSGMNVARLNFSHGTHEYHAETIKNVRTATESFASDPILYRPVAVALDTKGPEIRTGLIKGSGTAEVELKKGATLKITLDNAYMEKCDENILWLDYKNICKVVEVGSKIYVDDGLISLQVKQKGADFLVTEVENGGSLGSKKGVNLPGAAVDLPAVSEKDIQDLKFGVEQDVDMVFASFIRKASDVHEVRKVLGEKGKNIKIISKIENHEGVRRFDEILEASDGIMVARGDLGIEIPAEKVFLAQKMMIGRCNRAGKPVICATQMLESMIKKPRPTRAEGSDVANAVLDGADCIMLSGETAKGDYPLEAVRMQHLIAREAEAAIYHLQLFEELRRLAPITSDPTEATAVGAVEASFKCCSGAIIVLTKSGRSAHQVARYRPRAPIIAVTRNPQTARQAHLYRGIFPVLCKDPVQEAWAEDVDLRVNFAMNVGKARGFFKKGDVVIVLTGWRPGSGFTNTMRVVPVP

For orientation: IC50 means the concentration at which inhibition is half-maximal. As to `C=C1C(=O)O[C@H]2[C@H]1CC/C(COC(=O)c1ccc3ncccc3c1)=C/CC[C@@]1(C)O[C@@H]21`, the IC50 in data set [1] stood at 6600 nM; in data set [2], 3110 nM; in [3], 1990 nM; in data set [5], 290 nM; in data set [6], 3180 nM; in data set [7], 1330 nM. In addition, the IC50 in [8] amounted to 1600 nM. For the same compound, the outcome in [4] was Active.

Consider `C=C1C(=O)O[C@@H]2C3O[C@]3(C)CC/C=C(\C)CC[C@@H]12` (stereo not given in full), for which the IC50 worked out at 26100 nM in data set [1]; 7000 nM in data set [2]; 8680 nM in [3]; 3560 nM in data set [5]; 2780 nM in data set [11]; 10300 nM in [6]. Moreover, the IC50 came out at 7410 nM in data set [7] and 8120 nM in [8]. Besides, the selectivity ratio in data set [9] worked out at 0.38. Moreover, the “Ratio IC50” value in data set [10] is given as 0.78.

As for `C=C1C(=O)O[C@H]2[C@H]1CC/C(COC(=O)CCc1nc3ccccc3[nH]c1=O)=C/CC[C@@]1(C)O[C@@H]21`, the IC50 was found to be 14200 nM in data set [1]; 6990 nM in data set [2]; 7560 nM in data set [3]; 1740 nM in data set [5]; 8120 nM in data set [6]; 5660 nM in data set [7]. The IC50 in data set [8] worked out at 6130 nM.

For `C/C1=C\CC[C@@]2(C)O[C@H]2[C@H]2OC(=O)/C(=C\c3ccc4nc[nH]c(=O)c4c3)[C@@H]2CC1`, the half-inhibitory concentration (IC50) stood at 86600 nM in data set [1]; 24600 nM in data set [2]; 55100 nM in data set [3]; 34000 nM in [5]; 33500 nM in data set [6]; 28600 nM in data set [7]. Moreover, in data set [8], the IC50 stood at 32900 nM.

For `C=C1C(=O)O[C@H]2[C@H]1CC[C@]1(C)O[C@@H]1CC[C@@]1(C)O[C@@H]21`, the IC50 turned out to be 23500 nM in data set [1]; 13000 nM in [2]; 15200 nM in data set [3]; 4300 nM in data set [5]; 28600 nM in [6]; 11400 nM in data set [7]. Further, the 50% inhibitory concentration (IC50) in [8] came out at 13400 nM.

`C=C1C(=O)O[C@H]2[C@H]1CC/C(COC(=O)c1ccc3nc(Cl)ccc3c1)=C/CC[C@@]1(C)O[C@@H]21`: the IC50 in data set [1] was 4830 nM; in [2], 2460 nM; in [3], 2690 nM; in data set [5], 460 nM; in [6] it was 1750 nM; in [7] it was 1420 nM. In addition, the concentration for half-maximal inhibition (IC50) in data set [8] came out at 1770 nM.

Turning to `C=C1C(=O)O[C@H]2[C@H]1CC/C(COC(=O)c1ccc3ncc(Br)cc3c1)=C/CC[C@@]1(C)O[C@@H]21`, the IC50 in data set [1] was 4500 nM; in data set [2] it was 2510 nM; in data set [3], 1890 nM; in data set [5], 380 nM; in data set [6], 920 nM; in data set [7] it was 790 nM. In addition, the IC50 in [8] worked out at 1210 nM.

Turning to `CO[C@@]12[C@H](COC(N)=O)C3=C(C(=O)C(C)=C(N)C3=O)N1C[C@@H]1N[C@@H]12` [MITOMYCIN], the IC50 worked out at 2270 nM in data set [1]; 8450 nM in data set [2]; 2890 nM in data set [3]; 790 nM in data set [5]; 2750 nM in [6]; 440 nM in data set [7]. For the same compound, the IC50 in [8] turned out to be 550 nM.

For `C=C1C(=O)O[C@H]2[C@H]1CC/C(COC(=O)c1ccc3nc(C)ccc3c1)=C/CC[C@@]1(C)O[C@@H]21`, the IC50 in data set [1] is 7790 nM; in data set [2] it was 1680 nM; in [3], 1290 nM; in data set [5] it was 790 nM; in data set [6], 1340 nM; in data set [7] it was 1610 nM. The IC50 in data set [8] came to 2780 nM.

In the case of `C=C1C(=O)O[C@H]2[C@H]1CC/C(COC(=O)c1ccc3ccccc3n1)=C/CC[C@@]1(C)O[C@@H]21`, the IC50 is 8840 nM in [1]; 2220 nM in [2]; 2140 nM in data set [3]; 1200 nM in [5]; 2950 nM in data set [6]; 2680 nM in data set [7]. The 50% inhibitory concentration (IC50) in [8] is 2970 nM.

Consider `C=C1C(=O)O[C@H]2[C@H]1CC/C(COC(=O)c1ccc3cccnc3c1)=C/CC[C@@]1(C)O[C@@H]21`, for which the concentration for half-maximal inhibition (IC50) in [1] was 9840 nM; in data set [2], 1300 nM; in [3] it was 1750 nM; in data set [5], 330 nM; in data set [6] it was 2950 nM; in [7] it was 2800 nM. The IC50 in [8] came out at 3130 nM.

Turning to `C=C1C(=O)O[C@H]2[C@H]1CC/C(COC(=O)c1ccc3cnccc3c1)=C/CC[C@@]1(C)O[C@@H]21`, the IC50 in [1] stood at 9520 nM; in data set [2], 2580 nM; in data set [3], 2270 nM; in [5] it was 1330 nM; in [6], 2450 nM; in [7], 2430 nM. Besides, in [8], the half-maximal inhibitory concentration (IC50) was found to be 2700 nM.

`C/C1=C\CC[C@@]2(C)O[C@H]2[C@H]2OC(=O)/C(=C\c3ccc4ncccc4c3)[C@@H]2CC1`: the IC50 in [1] was 23600 nM; in data set [2], 2780 nM; in data set [3] it was 12500 nM; in data set [5], 2710 nM; in data set [6], 16800 nM; in [7], 6660 nM. For the same compound, the IC50 in [8] is 6550 nM.
